Results from patent publication US11186606B2, “Compositions and methods of modulating the immune response by activating alpha protein kinase 1” (Shanghai Yao Yuan Biotechnology Co., Ltd., priority 2017, dated 2021).

How the values were obtained:
ALPK1 = ALPK1 (Homo sapiens, UniProt Q96QP1); test: In vitro kinase assay of ALPK1-dependent TIFA phosphorylation; format: biochemical
Protocol: We performed an in vitro kinase assay with H1b-ADP and H1b-ADP-6L along with ALPK1 protein (2 nM), and TIFA protein (1.6 uM) in kinase buffer containing 50 uM ATP. TIFA phosphorylation was analyzed by denaturing gel electrophoresis followed by western blotting using an anti-phosphothreonine antibody. H1b-ADP or H1b-ADP-6L was added at 2 nM, 0.4 nM, 80 pM, 16 pM, and 3 pM.
To test this, we performed an in vitro kinase reaction for ALPK1-dependent TIFA phosphorylation in the presence of either HBP or HIdA purified from E. coli containing inactivated HIdE, or in the presence of HBP and HIdA purified from the same HIdE wild-type E. coli used in the previous experiments. Phosphorylated TIFA (three concentrations, 1%, 0.2% and […]) was detected as described above by denaturing gel electrophoresis followed by Western analysis.

TLR-9 = target: T1, TLR-9 (Homo sapiens, UniProt Q9NR96); conditions: US 20100016250 by Nagata et al.; cited from earlier work
T1 sequence (Q9NR96 26-1032): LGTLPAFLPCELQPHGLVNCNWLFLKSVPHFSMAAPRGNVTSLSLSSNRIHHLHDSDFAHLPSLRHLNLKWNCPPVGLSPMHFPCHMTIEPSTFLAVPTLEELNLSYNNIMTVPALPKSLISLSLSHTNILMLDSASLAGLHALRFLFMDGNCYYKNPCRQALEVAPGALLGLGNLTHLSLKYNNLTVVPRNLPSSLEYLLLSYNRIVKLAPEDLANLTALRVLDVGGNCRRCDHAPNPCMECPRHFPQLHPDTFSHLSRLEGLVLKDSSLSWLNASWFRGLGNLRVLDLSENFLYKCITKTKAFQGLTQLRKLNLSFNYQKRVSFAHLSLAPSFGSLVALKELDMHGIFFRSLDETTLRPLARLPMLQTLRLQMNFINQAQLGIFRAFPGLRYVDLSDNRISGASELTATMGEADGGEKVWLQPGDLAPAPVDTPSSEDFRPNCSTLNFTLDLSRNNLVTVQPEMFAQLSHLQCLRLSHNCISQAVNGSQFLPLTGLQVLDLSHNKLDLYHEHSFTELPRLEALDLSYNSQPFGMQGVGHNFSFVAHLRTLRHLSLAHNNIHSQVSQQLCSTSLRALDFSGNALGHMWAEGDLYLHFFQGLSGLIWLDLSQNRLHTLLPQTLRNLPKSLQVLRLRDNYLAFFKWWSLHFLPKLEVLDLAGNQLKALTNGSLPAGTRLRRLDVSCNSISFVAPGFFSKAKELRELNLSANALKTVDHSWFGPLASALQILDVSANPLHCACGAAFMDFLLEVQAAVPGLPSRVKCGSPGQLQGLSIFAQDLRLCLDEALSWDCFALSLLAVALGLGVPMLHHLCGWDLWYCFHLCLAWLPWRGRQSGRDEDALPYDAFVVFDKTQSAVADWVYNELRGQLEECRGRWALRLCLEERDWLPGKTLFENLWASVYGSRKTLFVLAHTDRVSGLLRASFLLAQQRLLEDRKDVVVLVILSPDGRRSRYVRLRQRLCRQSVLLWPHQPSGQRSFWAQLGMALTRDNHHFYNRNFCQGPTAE

ALPK1, sequence (Q96QP1 whole entry): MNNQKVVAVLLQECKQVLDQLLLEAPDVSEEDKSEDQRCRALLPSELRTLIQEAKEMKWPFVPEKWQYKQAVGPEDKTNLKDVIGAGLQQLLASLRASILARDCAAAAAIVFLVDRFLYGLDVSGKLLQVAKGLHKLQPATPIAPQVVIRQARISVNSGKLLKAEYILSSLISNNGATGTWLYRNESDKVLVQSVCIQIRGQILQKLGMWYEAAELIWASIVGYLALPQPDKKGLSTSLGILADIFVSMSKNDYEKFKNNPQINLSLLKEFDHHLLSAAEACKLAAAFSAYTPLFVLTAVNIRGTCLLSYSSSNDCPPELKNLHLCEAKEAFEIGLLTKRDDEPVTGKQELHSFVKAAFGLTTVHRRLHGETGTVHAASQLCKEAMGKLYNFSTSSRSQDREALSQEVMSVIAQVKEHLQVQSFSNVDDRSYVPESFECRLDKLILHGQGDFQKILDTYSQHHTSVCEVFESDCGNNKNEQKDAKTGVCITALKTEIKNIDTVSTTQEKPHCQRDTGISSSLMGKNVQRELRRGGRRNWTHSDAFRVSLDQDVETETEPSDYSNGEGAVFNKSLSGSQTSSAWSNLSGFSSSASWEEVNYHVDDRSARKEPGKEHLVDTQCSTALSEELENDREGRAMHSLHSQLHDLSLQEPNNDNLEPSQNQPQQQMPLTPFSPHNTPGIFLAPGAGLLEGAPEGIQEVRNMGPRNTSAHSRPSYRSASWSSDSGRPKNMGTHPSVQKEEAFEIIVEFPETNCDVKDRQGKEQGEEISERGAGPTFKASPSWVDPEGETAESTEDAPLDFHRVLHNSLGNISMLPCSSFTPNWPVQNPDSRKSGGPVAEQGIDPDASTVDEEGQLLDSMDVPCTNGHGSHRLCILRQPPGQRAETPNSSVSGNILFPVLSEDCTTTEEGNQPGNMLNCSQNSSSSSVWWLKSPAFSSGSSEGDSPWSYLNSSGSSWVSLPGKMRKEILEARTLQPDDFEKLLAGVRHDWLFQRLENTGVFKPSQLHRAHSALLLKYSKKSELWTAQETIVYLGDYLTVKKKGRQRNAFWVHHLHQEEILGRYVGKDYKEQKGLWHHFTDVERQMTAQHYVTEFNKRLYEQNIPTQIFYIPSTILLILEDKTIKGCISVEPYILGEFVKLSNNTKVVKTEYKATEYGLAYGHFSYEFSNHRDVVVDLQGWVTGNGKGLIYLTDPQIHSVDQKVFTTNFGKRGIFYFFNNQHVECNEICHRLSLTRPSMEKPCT

## Nc1ncnc2c1ncn2[C@@H]1O[C@H](COP(=O)(O)OP(=O)(O)O[C@@H]2O[C@H]([C@H](O)CO)[C@@H](O)[C@H](O)[C@@H]2O)[C@@H](O)[C@H]1O [Compound H1b-ADP, D-glycero-D-manno-heptose-1β-ADP]
ALPK1; ALPK1 2 nM, TIFA 1.6 uM, 50 uM ATP, 2 nM to 3 pM
  TIFA phosphorylation (ALPK1-dependent signaling): activated ALPK1-dependent signaling
ALPK1; FIG. 7, chemically-synthesized compounds
  phosphorylation of the ALPK1 substrate TIFA: TIFA is phosphorylated only in the presence of H1b-ADP
TLR-9
  TLR-9 agonist activity: TLR-9 agonist
